By melting point is commonly meant the temperature of the solid-liquid transition. Regarding `CN(C)CCOc1ccc(NC(=O)C2C=Nc3cccc(=O)n32)cc1` (stereo not drawn), the melting point is 198 to 210 °C.

In the case of `CCOc1ccc(NC(=O)C2C=Nc3cccc(=O)n32)c(F)c1` (stereo not drawn), the melting point was > 216 °C (dec.).

With `Cc1ccc(F)c(NC(=O)C2C=Nc3cccc(=O)n32)c1` (stereo not drawn), the melting point was 280 to 285 °C (dec.).

Turning to `O=C(Nc1ccc(OC(F)(F)F)cc1)C1C=Nc2cccc(=O)n21` (stereo not drawn), the melting point lay within 273 to 275 °C.

On to `Cc1cc(=O)n2c(C(=O)Nc3cc(F)ccc3F)c[nH]c2c1`, for which the melting point was > 285 °C (dec.).

For the compound `O=C(Nc1cccc(C(F)(F)F)c1F)C1C=Nc2cccc(=O)n21` (stereo not drawn), the melting point was 274 to 277 °C (dec.).

The values are drawn from patent publication US6723332B2 (dated 2004).
